{
  "source": "patent US5357044A",
  "about": "“Cecropins fusion proteins” (Xoma Corporation, priority 1993, dated 1994)",
  "key": {"[1]": {"system": "Bacillus megaterium", "details": "background art; cited from earlier work"}, "[2]": {"system": "Serratia marcesens", "assay": "Bactericidal agar-well halo assay, Serratia marcesens", "type": "cell-based", "details": "CNBr-digested fusion protein isolate 5 ug", "method": "(§1) Agar plates (8 cm in diameter) were prepared with 6 ml of TYE medium containing about 10^7 viable cells of test organism. Wells, 2 mm diameter, were punched in the plates. The test material was dissolved in 50 mM phosphate buffer (pH 6.6) and 3 ul was applied to each well. The diameters of the inhibition zones, or halos, around the wells were measured after overnight incubation at 25° C. To determine a standard of halo formation, CA 1-33 protein was used. 1 ug and 3 ug of CA 1-33 in well applications caused halos with diameters of 8 mm and 11 mm respectively, on media infused with E. coli strain JF568. 10 ug and 30 ug of cyanogen bromide-digested pCA3A araB-CA fusion protein caused halos with diameters 7 mm and 18 mm respectively.\n(§2) Cyanogen bromide-digested fusion protein fractionated by HPLC was also applied to this assay. […] Other bacterial and yeast strains were also tested in this assay. Cyanogen bromide-digested and undigested fusion protein samples were applied in the amounts described above in the testing of E. coli strain JF568, and the resulting halo diameters were measured."}, "[3]": {"system": "Erwinia carotovora EC", "assay": "Bactericidal agar-well halo assay, Erwinia carotovora EC", "type": "cell-based", "method": "as §1, §2"}, "[4]": {"system": "E. coli 5506 DR", "assay": "Bactericidal agar-well halo assay, E. coli 5506 DR", "type": "cell-based", "method": "as §1, §2"}, "[5]": {"system": "Pseudomonas PS-9", "assay": "Bactericidal agar-well halo assay, Pseudomonas PS-9", "type": "cell-based", "details": "CNBr-digested fusion protein isolate 5 ug", "method": "as §1, §2"}, "[6]": {"system": "Klebsiella pneumoniae", "assay": "Bactericidal agar-well halo assay, Klebsiella pneumoniae", "type": "cell-based", "details": "CNBr-digested fusion protein isolate 5 ug", "method": "as §1, §2"}, "[7]": {"system": "Xenohabdus nematophillus", "assay": "Bactericidal agar-well halo assay, Xenohabdus nematophillus", "type": "cell-based", "details": "CNBr-digested fusion protein isolate 5 ug", "experimental": "Cyanogen bromide-digested fusion protein fractionated by HPLC was also applied to this assay. […] Cyanogen bromide-digested and undigested fusion protein samples were applied in the amounts described above in the testing of E. coli strain JF568, and the resulting halo diameters were measured."}, "[8]": {"system": "Salmonella derby", "assay": "Bactericidal agar-well halo assay, Salmonella derby", "type": "cell-based", "method": "as §1, §2"}, "[9]": {"system": "E. coli 5506", "assay": "Bactericidal agar-well halo assay, E. coli 5506", "type": "cell-based", "method": "as §1, §2"}, "[10]": {"system": "eight other species of bacteria", "details": "background art; cited from earlier work"}, "[11]": {"system": "E. coli", "details": "background art; cited from earlier work"}, "[12]": {"system": "Streptococcus faecalis", "assay": "Bactericidal agar-well halo assay, Streptococcus faecalis", "type": "cell-based", "details": "ampicillin 750 ng", "method": "as §1, §2"}, "[13]": {"details": "CNBr-digested fusion protein isolate 5 ug"}},
  "note": "Ends that are not written are not given here.",
  "data": [
    {"molecule": "cecropin A: natural antibacterial peptide purified from immune hemolymph of the Cecropia moth (KWKLFKKIEKVGQNIRDGIIKAGPAVAVVGQATQIAK; UniProt P01507 27-63, looked up)", "values": [
      {"measurement": "sensitivity of the bacterium to the cecropin", "setting": "[1]", "value": "highly sensitive"}
    ]},
    {"molecule": "pCA3D: CNBr-digested araB-CA fusion protein isolate from E. coli carrying plasmid pCA3D; releases wild type cecropin A (KWKLFKKIEKVGQNIRDGIIKAGPAVAVVGQATQIAK; ends and bridges not checked; UniProt P01507 27-63, looked up)", "values": [
      {"measurement": "Halo Activity in Millimeters", "setting": "[2]", "value": 1.0, "unit": "Millimeters"},
      {"measurement": "Halo Activity in Millimeters", "setting": "[3]; [13]", "value": 4.75, "unit": "Millimeters"},
      {"measurement": "Halo Activity in Millimeters", "setting": "[4]; [13]", "value": 6.5, "unit": "Millimeters"},
      {"measurement": "Halo Activity in Millimeters", "setting": "[5]", "value": 2.0, "unit": "Millimeters"},
      {"measurement": "Halo Activity in Millimeters", "setting": "[6]", "value": 4.5, "unit": "Millimeters"},
      {"measurement": "Halo Activity in Millimeters", "setting": "[7]", "value": 2.75, "unit": "Millimeters"},
      {"measurement": "Halo Activity in Millimeters", "setting": "[8]; [13]", "value": 5.0, "unit": "Millimeters"},
      {"measurement": "Halo Activity in Millimeters", "setting": "[9]; [13]", "value": 5.0, "unit": "Millimeters"}
    ]},
    {"molecule": "cecropin D", "values": [
      {"measurement": "activity against eight other species of bacteria", "setting": "[10]", "value": "significantly reduced activity"},
      {"measurement": "sensitivity of the bacterium to the cecropin", "setting": "[1]", "value": "relatively resistant"},
      {"measurement": "activity against E. coli relative to cecropins A and B", "setting": "[11]", "value": "almost as much activity"}
    ]},
    {"molecule": "CC1(C)S[C@@H]2[C@H](NC(=O)[C@H](N)c3ccccc3)C(=O)N2[C@H]1C(=O)O", "note": "[Ampicillin, ampicillin]", "values": [
      {"measurement": "Halo Activity in Millimeters", "setting": "[3]; ampicillin 750 ng", "value": 6.5, "unit": "Millimeters"},
      {"measurement": "Halo Activity in Millimeters", "setting": "[4]; ampicillin 750 ng", "value": 4.5, "unit": "Millimeters"},
      {"measurement": "Halo Activity in Millimeters", "setting": "[8]; ampicillin 750 ng", "value": 6.0, "unit": "Millimeters"},
      {"measurement": "Halo Activity in Millimeters", "setting": "[9]; ampicillin 750 ng", "value": 4.5, "unit": "Millimeters"},
      {"measurement": "Halo Activity in Millimeters", "setting": "[12]", "value": 7.0, "unit": "Millimeters"}
    ]},
    {"molecule": "cecropin B: natural antibacterial peptide purified from immune hemolymph; sequence shown in b10 (KWKVFKKIEKMGRNIRNGIVKAGPAIAVLGEAKAL; UniProt P01508 27-61, looked up)", "values": [
      {"measurement": "sensitivity of the bacterium to the cecropin", "setting": "[1]", "value": "highly sensitive"}
    ]}
  ]
}
